Results reported in patent US7495114B2, “Cytotoxic agents containing novel potent taxanes and their therapeutic use” (Immunogen Inc., priority 2002, dated 2009).

Assays:
Assay type in all cases: cell-based, human
A431 cells = assay: In vitro cytotoxicity of taxanes, plating efficiency (clonogenic) assay, A431; details: read-out: IC50 value towards A431 cells
Description: (§1) The sulfide, disulfide, and sulfhydryl containing taxane drugs of the invention can be evaluated for their ability to suppress proliferation of various human tumor cell lines in vitro. Four adherent cell lines, A431 (human epidermoid carcinoma), SKBR3 (human breast tumor), A549 (human lung carcinoma) and MCF-7 (human breast tumor), and the non-adherent cell line, Namalwa (Burkitt's lymphoma) are used for the assessment of cytotoxicity of these compounds. Cells are exposed to the compounds for 72 hours and the surviving fractions of cells are measured in direct assays.
A431, A549 and MCF-7 cells were plated at different densities in 6-well tissue-culture plates in DMEM medium supplemented with 10% fetal calf serum. Taxane 2′, at varying concentrations, was added and the cells were maintained in a humidified atmosphere at 37° C. and 6% CO2 until colonies of approximately 20 cells or more were formed (6 to 10 days). Control plates contained no taxane. The cells were then fixed with formaldehyde, stained with crystal violet, and counted under a low-magnification microscope. Plating efficiencies were then determined from the colony numbers and surviving fractions of cells were calculated as the ratio of the plating efficiency of the treated sample and the plating efficiency of the control.

MCF-7 cells = assay: In vitro cytotoxicity of taxanes, plating efficiency (clonogenic) assay, MCF-7; details: read-out: IC50 value towards MCF-7 cells
Description: (§2) The new taxanes and the disulfide containing taxane drugs of the invention can be evaluated for their ability to suppress proliferation of human tumor cell lines in vitro.
as §1
(§3) The cytotoxic potency of taxane 3′ was similarly confirmed. […] The cells were then fixed with formaldehyde, stained with crystal violet, and counted under a low-magnification microscope. Plating efficiencies were then determined from the colony numbers and surviving fractions of cells were calculated as the ratio of the plating efficiency of the treated sample and the plating efficiency of the control.
(§4) The new taxoids and the disulfide containing taxane drugs of the invention were evaluated for their ability to suppress proliferation of human tumor cell lines in vitro. […]
(§5) 18 and 37 was measured as follows. […]

A549 cells = assay: In vitro cytotoxicity of taxanes, plating efficiency (clonogenic) assay, A549; details: read-out: IC50 value towards A549 cells
Description: as §2, §1, §3, §4, §5

Row | Compound | IC50 (A431 cells) | IC50 (MCF-7 cells) | IC50 (A549 cells)
1 | 3′-dephenyl-3′-(isobutenyl)-7-(methyldisulfonyl-propanoyl)-docetaxel [Taxane 2′] | 0.8 nM |  | 
2 | COc1ccc(OC)c(C(=O)OC2C3C4(OC(C)=O)COC4CC(OC(=O)CCSSC)C3(C)C(=O)C(O)C3=C(C)C(OC(=O)C(O)C(C=C(C)C)NC(=O)OC(C)(C)C)CC2(O)C3(C)C)c1 (stereo not drawn) [Taxane 3′, 3′-dephenyl-3′-(isobutenyl)-2-debenzoyl-2-(2,5-dimethoxybenzoyl)-7-(methyldisulfonyl-propanoyl)-docetaxel] |  | 0.063 nM | 0.18 nM
